Experimental data reported in paper PMC7868389, “Identification and Functional Characterization of Two Putative Pheromone Receptors in the Potato Tuber Moth, Phthorimaea operculella” (Frontiers in Physiology, 2021).

Columns and labels:
Assay type in all cases: cell-based
[1] = biological target: T1, PopeOR3 (Phthorimaea operculella, UniProt A0A8K1YT60); assay: two-electrode voltage clamp in Xenopus oocytes
T1 construct: full-length ORF, co-expressed with PopeOrco in Xenopus oocytes; with PopeOrco
T1 sequence (A0A8K1YT60 1-404): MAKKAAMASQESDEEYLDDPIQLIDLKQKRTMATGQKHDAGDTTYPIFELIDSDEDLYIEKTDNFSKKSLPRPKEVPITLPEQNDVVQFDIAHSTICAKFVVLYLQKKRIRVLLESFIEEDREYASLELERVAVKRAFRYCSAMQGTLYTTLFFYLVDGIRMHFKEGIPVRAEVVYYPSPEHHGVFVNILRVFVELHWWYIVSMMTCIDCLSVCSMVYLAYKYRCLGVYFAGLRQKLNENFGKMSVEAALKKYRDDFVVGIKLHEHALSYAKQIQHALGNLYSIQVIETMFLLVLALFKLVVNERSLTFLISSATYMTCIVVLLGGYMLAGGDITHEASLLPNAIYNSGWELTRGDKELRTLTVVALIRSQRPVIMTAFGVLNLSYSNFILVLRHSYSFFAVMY
T1 sequence (A0A8K1YT59 1-473 partner): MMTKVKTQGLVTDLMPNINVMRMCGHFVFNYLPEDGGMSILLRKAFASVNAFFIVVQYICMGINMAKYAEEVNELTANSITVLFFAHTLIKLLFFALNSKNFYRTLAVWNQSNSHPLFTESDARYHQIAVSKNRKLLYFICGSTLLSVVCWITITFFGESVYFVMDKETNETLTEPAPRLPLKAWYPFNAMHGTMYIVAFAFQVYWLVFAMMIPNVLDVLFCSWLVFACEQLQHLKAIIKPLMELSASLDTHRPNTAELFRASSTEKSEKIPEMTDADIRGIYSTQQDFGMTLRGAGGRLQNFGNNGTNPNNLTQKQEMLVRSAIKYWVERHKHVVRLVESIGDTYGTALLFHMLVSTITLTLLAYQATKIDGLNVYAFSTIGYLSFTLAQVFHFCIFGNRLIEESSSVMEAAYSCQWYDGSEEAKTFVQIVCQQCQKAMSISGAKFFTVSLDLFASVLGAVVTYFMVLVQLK

[2] = biological target: T2, PopeOR1 (Phthorimaea operculella, UniProt A0A8K1YT58); assay: two-electrode voltage clamp in Xenopus oocytes
T2 construct: full-length ORF, co-expressed with PopeOrco in Xenopus oocytes; with PopeOrco
T2 sequence (A0A8K1YT58 1-435): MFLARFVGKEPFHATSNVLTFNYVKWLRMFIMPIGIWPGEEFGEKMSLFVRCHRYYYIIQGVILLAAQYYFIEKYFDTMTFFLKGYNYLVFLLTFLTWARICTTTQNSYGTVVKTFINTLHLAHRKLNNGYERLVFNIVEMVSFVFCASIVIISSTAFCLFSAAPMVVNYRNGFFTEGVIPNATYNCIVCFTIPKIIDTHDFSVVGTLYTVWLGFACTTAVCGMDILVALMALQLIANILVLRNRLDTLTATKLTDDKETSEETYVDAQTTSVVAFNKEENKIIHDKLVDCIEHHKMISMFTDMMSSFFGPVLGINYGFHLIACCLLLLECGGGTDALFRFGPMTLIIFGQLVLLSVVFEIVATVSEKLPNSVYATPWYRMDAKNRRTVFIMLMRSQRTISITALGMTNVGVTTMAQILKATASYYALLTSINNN
T2 sequence (A0A8K1YT59 1-473 partner): T1 sequence (A0A8K1YT59 1-473 partner)

[3] = biological target: T1, PopeOR3; assay: two-electrode voltage clamp in Xenopus oocytes, weak current at […]

| Structure (SMILES) | EC50 [1] [µM] | EC50 [2] [µM] | two-electrode voltage clamp in Xenopus oocytes, weak current at 10^-4 M [3] [nA] |
| --- | --- | --- | --- |
| CC/C=C\C/C=C\C/C=C/CCCOC(C)=O [(E, Z, Z)-4,7,10–13: OAc, tran-4, cis-7, cis-10-tridecatrienyl acetate] | 89 | 39 |  |
| CCCCC/C=C\C/C=C/CCCOC(C)=O [(E, Z)-4,7–13: OAc, trans-4, cis-7-tridecadienyl acetate] |  | 73 | 29.41 ± 6.87 |
